Results published in US7786147B2, “Analogs of choline for neuroprotection and cognitive enhancement in neurodegenerative disorders” (Medical College of Georgia Research Institute., priority 2001, dated 2010).

What was measured:
[1] = system: differentiated PC-12 cells; assay: MTT cell viability (neuroprotection) assay after neurotrophic factor withdrawal; type: cell-based; parameters: neuroprotective action after pretreatment with mecamylamine: dose or concentration left out as unconfirmed; conditions: for potency in neuroprotection relative to choline and its ethyl analogs (in words): effects at lowest dose 0.1 mM not much reduced from 10 mM
Experimental: Cell Culture: PC12 cells were maintained in 150-cm^2 tissue-culture flasks in Dulbecco's Modified Eagles medium containing 7% horse serum, 7% fetal calf serum, 1% non-essential amino-acids and 1% streptomycin (DMEM). The cells were incubated at 37 C in a 5% CO2-enriched, humidified atmosphere. To attain maximum differentiation, the cells were maintained in DMEM.NGF medium for 7 days, with the medium being changed every 2 or 3 days.
Assay for Cell viability. Cells were dissociated by trituration and plated at 1×10^4 cells per well on poly-L-lysine coated 96 well plates containing DMEM.NGF media. Next, the differentiated cells were incubated with the test drug at different concentrations for the specified period of time. Cell viability (cytotoxicity) was determined using the Cell Titer 96 non-radioactive cell proliferation/cytotoxicity assay kit (Promega), which is based on the cellular conversion of a 3-(4,5-dimethylthiazol-2-yl)-2,5-diphenyltetrazolium bromide (MTT) into a formazan product which can be detected spectrophotometrically. After deprivation of cells from NGF and serum, the medium was aspirated and 15 l of dye solution dissolved in DMEM was added. After an additional 4 hr incubation at 37 C, 100 l of solubilization/stop solution was added and the absorbance of solubilized MTT formazan products was measured at 570 nm.
Differentiated PC-12 cells were deprived of neurotrophic factors for 24 hr to promote cytotoxicity. Cell viability was measured by the MTT assay under control conditions, and in cultures in which a choline analog was introduced into the medium at the time of neurotrophic factor withdrawal. […] Choline and its mono-, di-, and tri-ethyl analogs produced a concentration dependent and intermediate level of neuroprotection improving cell viability by up to 40% of baseline.

[2] = target: 7 nicotinic acetylcholine receptor (Rattus norvegicus, UniProt Q05941); type: binding; conditions: PC-12 cells; FIG. 8
Sequence of 7 nicotinic acetylcholine receptor (Q05941 23-502): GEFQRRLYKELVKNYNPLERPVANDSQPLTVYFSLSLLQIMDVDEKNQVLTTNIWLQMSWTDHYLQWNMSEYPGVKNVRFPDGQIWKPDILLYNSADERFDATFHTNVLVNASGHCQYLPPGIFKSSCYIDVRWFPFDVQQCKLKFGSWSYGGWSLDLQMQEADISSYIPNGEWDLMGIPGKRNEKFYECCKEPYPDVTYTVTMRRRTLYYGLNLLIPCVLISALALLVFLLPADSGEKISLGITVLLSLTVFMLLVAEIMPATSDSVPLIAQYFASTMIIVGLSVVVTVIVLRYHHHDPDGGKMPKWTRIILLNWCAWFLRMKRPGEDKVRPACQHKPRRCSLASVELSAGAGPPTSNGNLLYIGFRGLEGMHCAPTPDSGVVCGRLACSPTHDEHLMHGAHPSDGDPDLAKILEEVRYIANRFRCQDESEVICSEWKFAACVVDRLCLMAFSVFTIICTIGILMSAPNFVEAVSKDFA

[3] = system: differentiated PC-12 cells; assay: Cytoprotective effect (% Protection) with exposure 24 hours prior to growth factor withdrawal; type: cell-based; conditions: exposure 24 hours prior to removal of NGF and serum; FIGS. 11, 13A and B
Experimental: The above-described differentiated PC-12 cells were exposed to the indicated concentrations (see FIGS. 13A and B) of the FIG. 12 choline analogs 24 hours prior to growth factor withdrawal (removal of nerve growth factor, and changing from serum-containing to serum-free medium). % Protection values were calculated as the ratio of ELISA-based absorbance values for [protected cells−deprived cells (no analog):control (non-deprived) cells−deprived cells]×100. Each data point in FIG. 13 represents data obtained from two separate assays each performed with 5-8 replicates per point.

## CC(=O)OCC[N+]1(C)CCCC1 [acetylpyrrolidinecholine]
[1]
  potency in neuroprotection relative to choline and its ethyl analogs (in words): more potent

## C[N+](C)(CCO)Cc1ccccc1.[Br-] [benzylcholine]
[2]
  displacement of cell surface [125I]-bungarotoxin binding (in words): failed to significantly interact
[1]; PC-12 cells deprived of neurotrophic factors for 24 hr, FIG. 5
  effect on cell viability (in words): did not affect cell viability

## CN1CCCC1c1cccnc1 (stereo not drawn) [nicotine]
[3]
  cytoprotective effect, % Protection concentration-effect curve (in words): biphasic

## C[N+]1(CCO)CCCC1 [pyrrolidinecholine]
[2]
  affinity for the [125I]-bungarotoxin site relative to choline (in words): slightly more potent affinity
  displacement of cell surface [125I]-bungarotoxin binding (in words): fully displaced
[1]; MLA (10 nM) pretreatment, FIGS. 9 and 10
  neuroprotective action after pretreatment with MLA: blocked
[1]
  potency in neuroprotection relative to choline and its ethyl analogs (in words): more potent
[1]; mecamylamine pretreatment, FIGS. 9 and 10
  neuroprotective action after pretreatment with mecamylamine: blocked
